According to US20160058743A1, “METHODS FOR TREATING SENSORIMOTOR IMPAIRMENTS ASSOCIATED WITH CERTAIN TYPES OF STROKE USING AMINOPYRIDINES” (ACORDA THERAPEUTICS, INC., priority 2013, published 2016):

Test system: rats with middle cerebral artery occlusion (MCAO)
Test: Forelimb placing test after MCAO
Type: in vivo, Sprague Dawley rats

Nc1ccncc1 [4-AP, 4-aminopyridine]
Forelimb placing compared to vehicle (Example 17, 0.5 mg/kg b.i.d. p.o., Day 59 post-MCAO, p<0.001): significantly improved in forelimb placing | Forelimb test compared to vehicle (Example 17, 1 mg/kg b.i.d. p.o., Day 62 post-MCAO, p<0.001): measureable improvement | Forelimb function compared to vehicle (Example 17, 2 mg/kg b.i.d. p.o., Day 65 post-MCAO, p<0.0001): significant improvements
